Results as given in patent US11236053B2, “NADPH oxidase inhibitors and uses thereof” (Emory University, priority 2017, dated 2022).

Tests used:
[1] = Superoxide scavenging assay (xanthine/xanthine oxidase, cytochrome C); format: biochemical; conditions: in vitro, concentrations up to 100 μM, superoxide from xanthine/xanthine oxidase
Procedure: (§1) ROS scavenging by sulfonylurea compound 23, 24, or 25 was assessed in vitro. Superoxide was generated with xanthine/xanthine oxidase and measured using the cytochrome C assay. In addition, 5 μM hydrogen peroxide was added exogenously and measured using the Amplex Red™ assay. ROS were measured in the presence of indicated concentrations of each compound or DMSO solvent. Bars represent means±SEM of 4 (superoxide) or 3 (hydrogen peroxide) independent experiments. Differences between DMSO and sulfonylurea compounds are not significant.
(§2) To assess ROS scavenging, the consumption of superoxide, generated by xanthine/xanthine oxidase, or of exogenous hydrogen peroxide, was measured by increasing concentrations of the compounds of interest.
An assay was developed based on the measurement of superoxide-dependent changes in cytochrome C absorbance at 550 nm. Briefly, superoxide was generated in vitro in phosphate buffered saline solution, using hypoxanthine (100 μM)/xanthine oxidase (6×10^3 U/mL) in the presence of catalase (200 U/mL) to eliminate H2O2. Compounds under study were added at various concentrations (1-100 μM) and remaining superoxide was measured with cytochrome C (46 μM). Superoxide dismutase (575 U/mL) was used as a positive control in separate samples measured at the same time. Following a 1 min stabilization period, absorbance was measured at 550 nm in a microplate reader (Biotek), using a kinetic program (1 read/min) for 15 min. The linear slope representing the rate of superoxide production was used to calculate the percentage of superoxide scavenging.

[2] = Hydrogen peroxide scavenging assay (Amplex Red); format: biochemical; conditions: in vitro, concentrations up to 100 μM, 5 μM exogenous hydrogen peroxide
Procedure: as §1, §2
Hydrogen peroxide was measured in vitro, using an Amplex Red™ assay kit (Invitrogen), according to the manufacturer's instructions. This assay measures the oxidation of Amplex Red™ (10-acetyl-3,7-dihydroxyphenoxazine) to fluorescent resorufin in the presence of horseradish peroxidase. Briefly, H2O2 ([…]) was added to various concentrations (1-100 μM) of the compounds under study in reaction buffer. After an incubation of 5 min, Amplex Red™ was added to measure remaining H2O2. Reactions were incubated for 30 min at room temperature, protected from light. Resorufin fluorescence was measured in a microplate reader (Biotek) using excitation at 530 nm and emission at 590 nm.

Nox4-dependent signaling = experiment: TGF-β-induced α-SMA upregulation in human aortic smooth muscle cells (Western blot); format: cell-based; conditions: HASMCs pretreated 30 min, TGF-β 24 h, Western blot normalized to β-tubulin
Procedure: Human aortic smooth muscle cells in culture were incubated with indicated concentrations of compound 23, 24, or 25 and stimulated with 2 ng/ml TGF-β for 24 h to induce a Nox4-dependent upregulation of smooth muscle alpha-actin (α-SMA). Protein expression was measured by Western blotting and normalized to β-tubulin. In the absence of inhibitor, α-SMA induction by TGF-β was maximal (100%).
Cells were pretreated with a candidate inhibitor 30 min before exposure to TGF-β and harvested after 24 h. Actin expression was measured by western blotting with a specific antibody.

Nox4 mRNA = Nox4 mRNA qPCR assay in TGF-β-stimulated cells; format: cell-based, human; conditions: preincubation, same range of concentrations as FIG. 11, TGF-β stimulated
[3] = tested on: human aortic smooth muscle cells; experiment: Mammalian cell live/dead viability assay; format: cell-based; conditions: TGF-β stimulated, n=6
Procedure: To rule out a possible toxic effect of these compounds in cultured cells, cell viability was measured using a commercial mammalian cell live/dead assay. Stimulation with TGF-β alone had no effect on cell viability (99±0.61%, P=NS, n=4).

hippocampal brain slices = hippocampal brain slices treated with Nox 4 inhibitors; cited from earlier work

Compound | effect on superoxide (ROS scavenging) [1] | effect on hydrogen peroxide (ROS scavenging) [2] | inhibition of Nox4-dependent signaling (α-SMA expression) (Nox4-dependent signaling) | effect on Nox4 expression (Nox4 mRNA) (Nox4 mRNA) | cell viability ([3]; 100 μM preincubation) [%] | cell death (hippocampal brain slices) | cell viability ([3]; 10 μM preincubation) [%]
O=C1N(c2ccc(C(F)(F)F)cc2)CCCN1S(=O)(=O)c1ccc(F)cc1 [Compound 24, 1-((4-Fluorophenyl)sulfonyl)-3-(4-(trifluoromethyl)phenyl)-tetrahydropyrimidin-2(1H)-one] | no effect | no effect | profoundly inhibiting | did not affect | 100±0.97 | – | –
Cc1c2c(=O)n(-c3ccccc3Cl)[nH]c2cc(=O)n1Cc1ccccn1 [GKT136901] | – | – | – | – | – | significantly reduced | –
COc1ccc(S(=O)(=O)N2CCN(c3ccc(C(F)(F)F)cc3)C2=O)cc1 [Compound 25, 1-((4-Methoxyphenyl)sulfonyl)-3-(4-(trifluoromethyl)phenyl)-imidazolidin-2-one] | no effect | no effect | profoundly inhibiting | did not affect | – | – | 97±2.50
COc1ccc(S(=O)(=O)N2CCCN(c3ccc(C(F)(F)F)cc3)C2=O)cc1 [Compound 23, 1-((4-Methoxyphenyl)sulfonyl)-3-(4-(trifluoromethyl)phenyl)-tetrahydropyrimidin-2(1H)-one] | no effect | no effect | profoundly inhibiting | did not affect | 92±3.09 | – | –
